pEC50, pKd: −log10 of the molar value. Numbered stars: 1 amine (or outer) side, 2 acyl side, 3 side chain; on linkers, the order of the positions; unused ones are H or OH. Bridge positions count the residues as written; N and C are the ends. Ends that are not written are not given here. Peptide text beside a SMILES is read from it. * marks the point of attachment. FITC = O=C1OC2(c3ccc(O)cc3Oc3cc(O)ccc32)c2ccc(NC(=S)*)cc21; X1 = O=C(C[*:2])Nc1cc(NC(=O)C[*:3])cc(C(=O)[*:1])c1; AEEA = NCCOCCOCC(=O)O
What was measured:
[1] = test system: AGS cells; experiment: Cell viability assay; type: cell-based; details: 24 hours
[2] = biological target: TEAD4 (Homo sapiens, UniProt Q15561); experiment: Fluorescence polarization binding assay of FAM/FITC-labelled peptides to TEAD4
Chain of TEAD4 (Q15561 210-434): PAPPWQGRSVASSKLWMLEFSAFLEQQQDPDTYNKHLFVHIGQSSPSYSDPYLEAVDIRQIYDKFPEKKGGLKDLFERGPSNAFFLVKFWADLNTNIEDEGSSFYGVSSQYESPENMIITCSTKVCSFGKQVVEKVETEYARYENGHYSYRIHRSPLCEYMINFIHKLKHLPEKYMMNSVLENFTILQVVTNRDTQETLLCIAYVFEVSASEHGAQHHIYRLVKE

For `CC(=O)N[C@@H](CC(C)C)C(=O)N1CCC[C@H]1C(=O)N[C@H]1CCCCNC(=O)c2cc3cc(c2)NC(=O)CSC[C@H](NC(=O)[C@H](CO)NC(=O)[C@H](C(C)C)NC(=O)[C@H](Cc2c[nH]c4ccccc24)NC(=O)[C@H](CO)NC(=O)[C@H]([C@@H](C)O)NC(=O)[C@H](CC(C)C)NC(=O)CNC(=O)[C@H]([C@@H](C)O)NC1=O)C(=O)N[C@@H](Cc1c[nH]cn1)C(=O)N[C@@H](Cc1ccccc1)C(=O)N[C@@H](CC(C)C)C(=O)N[C@@H](CCCNC(=N)N)C(=O)N[C@@H](CO)C(=O)N[C@@H](CC(C)C)C(=O)N[C@H](C(=O)NCC(=O)NCC(=O)N[C@@H](CO)C(=O)NCC(N)=O)CSCC(=O)N3` [compound 16] (Ac-LPKTGLTSWVSCHFLRSLCGGSG-NH2; linker 3-12-19 via X1), the “inhibitory activity on AGS cells” value ([1]; at 10 μM, in presence of PDPA nanocarrier) was “little inhibitory inhibition”.
In the case of `CC(C)C[C@H](NC(=O)[C@H](CO)NC(=O)[C@H](Cc1ccccc1)NC(=O)[C@H](CC(=O)O)NC(=O)[C@H](Cc1c[nH]c2ccccc12)NC(=O)[C@H](Cc1ccccc1)NC(=O)[C@H](CO)NC(=O)[C@H](CCCCN)NC(=O)[C@@H]1CCCN1C(=O)[C@H](Cc1c[nH]c2ccccc12)NC(=O)[C@H](CCC(N)=O)NC(=O)CNC(=O)[C@@H](NC(=O)[C@H](CCCCN)NC(=O)[C@@H]1CCCN1C(=O)[C@H](CC(C)C)NC(=O)COCCOCCNC(=S)Nc1ccc2c(c1)C(=O)OC21c2ccc(O)cc2Oc2cc(O)ccc21)[C@@H](C)O)C(=O)NCC(=O)N[C@@H](CS)C(=O)NCC(=O)NCC(=O)N[C@@H](CO)C(=O)NCC(N)=O` [linear version of 15] ({FITC-AEEA}-LPKTGQWPKSFWDFSLGCGGSG-NH2; N-terminus and C-terminus assumed), the pKd [2] was 5.20.
“PKKKRKVDPKKKRKVDPKKKRKVNGLPKTGLTSWVSCHFLRSLCGGSG-NH2 (linker 28-37-44 via X1; C-terminus assumed) [16-NLS]” was tested, and the pEC50 ([1]; read-out: cellular inhibitory activity EC50, AGS cells) was 5.08.
